The target of one assay is c-Kit kinase (Homo sapiens (Human), UniProt P10721). The assay is described as follows: c-Kit biochemical assay (AlphaScreen kinase activity). The gist of the method:
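AlphaScreen: c-Kit phosphorylates biotin-(E4Y)3 (100 nM) at 10 μM ATP, pH 7.2 HEPES buffer with Mg/Mn, 5% DMSO, 1 h room temperature; streptavidin donor and PY30 acceptor beads detect product. Second format: 100 μM ATP, 30 nM biotin-(E4Y)10, pH 7.5. IC50 from 8-point 1:3 dilution curves.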

Assay [1] has as its system BaF3-FL KIT D816V or BaF3-FL KIT V560G/D816V cell line. The assay is described as follows: Cell-based assays of c-Kit mutant kinase activity (cell proliferation, ATPlite). The conditions noted are these: at least one of the c-kit cell assays of Example 7. In a few lines:
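BaF3 cells dependent on transfected full-length human KIT D816V or V560G/D816V (pCI-Neo, CMV promoter) were seeded at 1×10^4 cells/well and exposed to 8-point 1:3 dilutions from 10 μM top (0.2% DMSO) for three days at 37° C. ATPlite luminescence gave cell number; IC50 from concentration-response.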
In general terms: ATP-based viability assays read luminescence as a measure of living cells.

Chain of c-Kit kinase (P10721 26-976): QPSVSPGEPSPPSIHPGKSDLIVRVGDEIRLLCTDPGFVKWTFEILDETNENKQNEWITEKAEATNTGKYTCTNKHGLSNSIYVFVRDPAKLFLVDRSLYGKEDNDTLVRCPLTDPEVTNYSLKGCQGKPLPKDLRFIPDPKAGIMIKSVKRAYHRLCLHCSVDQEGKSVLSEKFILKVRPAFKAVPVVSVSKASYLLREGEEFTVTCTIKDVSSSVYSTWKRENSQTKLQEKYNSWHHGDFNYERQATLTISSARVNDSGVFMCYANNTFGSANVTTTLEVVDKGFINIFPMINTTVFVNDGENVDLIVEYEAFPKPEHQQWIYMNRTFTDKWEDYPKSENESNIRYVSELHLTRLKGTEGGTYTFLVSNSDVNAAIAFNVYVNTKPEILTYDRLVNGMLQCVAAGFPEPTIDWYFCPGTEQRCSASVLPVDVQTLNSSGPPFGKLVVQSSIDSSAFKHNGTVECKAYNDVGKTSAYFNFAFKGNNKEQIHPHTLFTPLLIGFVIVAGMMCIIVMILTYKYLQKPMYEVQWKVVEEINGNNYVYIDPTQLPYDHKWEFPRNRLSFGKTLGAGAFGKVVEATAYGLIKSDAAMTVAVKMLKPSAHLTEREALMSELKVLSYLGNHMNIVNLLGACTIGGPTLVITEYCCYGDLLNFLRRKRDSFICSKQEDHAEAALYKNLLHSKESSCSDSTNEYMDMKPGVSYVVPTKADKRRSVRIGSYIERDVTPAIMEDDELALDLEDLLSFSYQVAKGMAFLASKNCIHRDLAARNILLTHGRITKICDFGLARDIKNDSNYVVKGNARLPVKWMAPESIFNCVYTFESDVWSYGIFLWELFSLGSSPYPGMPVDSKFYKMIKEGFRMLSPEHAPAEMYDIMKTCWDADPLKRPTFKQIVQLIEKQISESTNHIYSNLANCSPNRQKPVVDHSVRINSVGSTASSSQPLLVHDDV

The IC50 is the concentration needed to halve the response being measured. Lower therefore signals greater potency in that assay. Take `Cc1nc(C2CCN(c3ncnc4[nH]c(-c5cnn(C(F)F)c5)cc34)CC2)[nH]c1-c1ccc(OC(F)(F)F)cc1` [P-3116, 6-[1-(difluoromethyl)pyrazol-4-yl]-4-[4-[4-methyl-5-[4-(trifluoromethoxy)phenyl]-1H-imidazol-2-yl]-1-piperidyl]-7H-pyrrolo[2,3-d]pyrimidine]: the IC50 at c-Kit kinase was 0.0001 to 1 µM; in assay [1] it was less than 10000 nM.

Take `COc1cc(-c2cc3c(N4CCC(c5nc(C)c(-c6ccc(C)s6)[nH]5)CC4)ncnc3[nH]2)ccn1` [P-3117, 6-(2-methoxy-4-pyridyl)-4-[4-[4-methyl-5-(5-methyl-2-thienyl)-1H-imidazol-2-yl]-1-piperidyl]-7H-pyrrolo[2,3-d]pyrimidine]: the concentration for half-maximal inhibition (IC50) against c-Kit kinase is 0.0001 to 1 µM; in assay [1], less than 10000 nM.

Regarding `Cc1ccc(-c2[nH]c(C3CCN(c4ncnc5[nH]c(-c6ccc(F)cc6)cc45)CC3)nc2C)s1` [P-3118, 6-(4-fluorophenyl)-4-[4-[4-methyl-5-(5-methyl-2-thienyl)-1H-imidazol-2-yl]-1-piperidyl]-7H-pyrrolo[2,3-d]pyrimidine], the IC50 was 0.0001 to 1 µM at c-Kit kinase and less than 10000 nM in assay [1].

In the case of `Cc1nc(C2CCN(c3ncnc4[nH]c(-c5ccc(F)cc5)cc34)CC2)[nH]c1-c1ccc(Cl)s1` [P-3119, 4-[4-[5-(5-chloro-2-thienyl)-4-methyl-1H-imidazol-2-yl]-1-piperidyl]-6-(4-fluorophenyl)-7H-pyrrolo[2,3-d]pyrimidine], the IC50 on c-Kit kinase was 1 to 10 µM; in assay [1], less than 10000 nM.

In the case of `Cc1cc2c(N3CCC(c4nc(C)c(-c5ccc6c(c5)OCO6)[nH]4)CC3)ncnc2[nH]1` [P-3120, 4-[4-[5-(1,3-benzodioxol-5-yl)-4-methyl-1H-imidazol-2-yl]-1-piperidyl]-6-methyl-7H-pyrrolo[2,3-d]pyrimidine], the figures for the IC50 (at c-Kit kinase; in assay [1]) were 1 to 10 µM and less than 10000 nM, respectively.

For `Cc1cc2c(N3CCC(c4nc(C)c(-c5ccc6c(c5)OCCO6)[nH]4)CC3)ncnc2[nH]1` [P-3121, 4-[4-[5-(2,3-dihydro-1,4-benzodioxin-6-yl)-4-methyl-1H-imidazol-2-yl]-1-piperidyl]-6-methyl-7H-pyrrolo[2,3-d]pyrimidine], the half-maximal inhibitory concentration (IC50) was 1 to 10 µM on c-Kit kinase and less than 10000 nM in assay [1].

Turning to `Cc1nn(C)cc1-c1cc2c(N3CCC(c4nc(C)c(-c5ccc(OC(F)(F)F)cc5)[nH]4)CC3)ncnc2[nH]1` [P-3122, 6-(1,3-dimethylpyrazol-4-yl)-4-[4-[4-methyl-5-[4-(trifluoromethoxy)phenyl]-1H-imidazol-2-yl]-1-piperidyl]-7H-pyrrolo[2,3-d]pyrimidine], the results for the IC50 (against c-Kit kinase; in assay [1]) were 0.0001 to 1 µM and less than 10000 nM, respectively.

With `COc1cccc(-c2[nH]c(C3CCN(c4ncnc5[nH]c(-c6ccnc(OC)c6)cc45)CC3)nc2C(F)(F)F)c1` [P-3123, 4-[4-[5-(3-methoxyphenyl)-4-(trifluoromethyl)-1H-imidazol-2-yl]-1-piperidyl]-6-(2-methoxy-4-pyridyl)-7H-pyrrolo[2,3-d]pyrimidine], the concentration for half-maximal inhibition (IC50) at c-Kit kinase is 0.0001 to 1 µM; in assay [1], less than 10000 nM.

Regarding `COc1cccc(-c2[nH]c(C3CCN(c4ncnc5[nH]c(-c6ccc(C#N)cc6)cc45)CC3)nc2C(F)(F)F)c1` [P-3124, 4-[4-[4-[5-(3-methoxyphenyl)-4-(trifluoromethyl)-1H-imidazol-2-yl]-1-piperidyl]-7H-pyrrolo[2,3-d]pyrimidin-6-yl]benzonitrile], the IC50 was 0.0001 to 1 µM on c-Kit kinase and less than 10000 nM in assay [1].

For the molecule `CCOc1ccc(-c2[nH]c(C3CCN(c4ncnc5[nH]c(C)cc45)CC3)nc2C)cc1C` [P-3125, 4-[4-[5-(4-ethoxy-3-methyl-phenyl)-4-methyl-1H-imidazol-2-yl]-1-piperidyl]-6-methyl-7H-pyrrolo[2,3-d]pyrimidine], the IC50 is 1 to 10 µM against c-Kit kinase and less than 10000 nM in assay [1].

Regarding `CCOc1cc(-c2[nH]c(C3CCN(c4ncnc5[nH]c(C)cc45)CC3)nc2C)ccc1C` [P-3126, 4-[4-[5-(3-ethoxy-4-methyl-phenyl)-4-methyl-1H-imidazol-2-yl]-1-piperidyl]-6-methyl-7H-pyrrolo[2,3-d]pyrimidine], the IC50 against c-Kit kinase was 0.0001 to 1 µM; in assay [1] it was less than 10000 nM.

As for `Cc1cc2c(N3CCC(c4nc(C)c(-c5ccc6c(c5)OC(F)(F)O6)[nH]4)CC3)ncnc2[nH]1` [P-3127, 4-[4-[5-(2,2-difluoro-1,3-benzodioxol-5-yl)-4-methyl-1H-imidazol-2-yl]-1-piperidyl]-6-methyl-7H-pyrrolo[2,3-d]pyrimidine], the IC50 was 1 to 10 µM against c-Kit kinase and less than 10000 nM in assay [1].

With `COc1ccc(-c2[nH]c(C3CCN(c4ncnc5[nH]c(C)cc45)CC3)nc2C)cc1C` [P-3128, 4-[4-[5-(4-methoxy-3-methyl-phenyl)-4-methyl-1H-imidazol-2-yl]-1-piperidyl]-6-methyl-7H-pyrrolo[2,3-d]pyrimidine], the IC50 against c-Kit kinase is 1 to 10 µM; in assay [1], less than 10000 nM.

Consider `COc1cc(-c2[nH]c(C3CCN(c4ncnc5[nH]c(C)cc45)CC3)nc2C)ccc1C` [P-3129, 4-[4-[5-(3-methoxy-4-methyl-phenyl)-4-methyl-1H-imidazol-2-yl]-1-piperidyl]-6-methyl-7H-pyrrolo[2,3-d]pyrimidine], for which the 50% inhibitory concentration (IC50) against c-Kit kinase is 1 to 10 µM; in assay [1] it was less than 10000 nM.

`COc1ccc(-c2[nH]c(C3CCN(c4ncnc5[nH]c(C)cc45)CC3)nc2C)cc1` [P-3130, 4-[4-[5-(4-methoxyphenyl)-4-methyl-1H-imidazol-2-yl]-1-piperidyl]-6-methyl-7H-pyrrolo[2,3-d]pyrimidine]: the 50% inhibitory concentration (IC50) on c-Kit kinase is 1 to 10 µM; in assay [1], less than 10000 nM.

On to `COc1cccc(-c2[nH]c(C3CCN(c4ncnc5[nH]c(C)cc45)CC3)nc2C)c1` [P-3131, 4-[4-[5-(3-methoxyphenyl)-4-methyl-1H-imidazol-2-yl]-1-piperidyl]-6-methyl-7H-pyrrolo[2,3-d]pyrimidine], for which the IC50 at c-Kit kinase was 1 to 10 µM; in assay [1] it was less than 10000 nM.

As to `Cc1nc(C2CCN(c3ncnc4[nH]c(-c5ccc(C#N)cc5)cc34)CC2)[nH]c1-c1ccc2c(c1)OCCO2` [P-3132, 4-[4-[4-[5-(2,3-dihydro-1,4-benzodioxin-6-yl)-4-methyl-1H-imidazol-2-yl]-1-piperidyl]-7H-pyrrolo[2,3-d]pyrimidin-6-yl]benzonitrile], the IC50 against c-Kit kinase was 0.0001 to 1 µM; in assay [1] it was less than 10000 nM.

On to `Cc1nc(C2CCN(c3ncnc4[nH]c(-c5cnn(C(F)F)c5)cc34)CC2)[nH]c1-c1ccc2c(c1)OCCO2` [P-3133, 6-[1-(difluoromethyl)pyrazol-4-yl]-4-[4-[5-(2,3-dihydro-1,4-benzodioxin-6-yl)-4-methyl-1H-imidazol-2-yl]-1-piperidyl]-7H-pyrrolo[2,3-d]pyrimidine], for which the half-maximal inhibitory concentration (IC50) on c-Kit kinase was 0.0001 to 1 µM; in assay [1], less than 10000 nM.

`COc1cc(-c2cc3c(N4CCC(c5nc(C(F)(F)F)c(-c6ccc(C)cc6)[nH]5)CC4)ncnc3[nH]2)ccn1` [P-3134, 6-(2-methoxy-4-pyridyl)-4-[4-[5-(p-tolyl)-4-(trifluoromethyl)-1H-imidazol-2-yl]-1-piperidyl]-7H-pyrrolo[2,3-d]pyrimidine]: the half-inhibitory concentration (IC50) against c-Kit kinase is 0.0001 to 1 µM; in assay [1], less than 10000 nM.

On to `Cc1ccc(-c2[nH]c(C3CCN(c4ncnc5[nH]c(-c6ccc(F)cc6)cc45)CC3)nc2C(F)(F)F)cc1` [P-3135, 6-(4-fluorophenyl)-4-[4-[5-(p-tolyl)-4-(trifluoromethyl)-1H-imidazol-2-yl]-1-piperidyl]-7H-pyrrolo[2,3-d]pyrimidine], for which the figures for the IC50 (on c-Kit kinase; in assay [1]) were 0.0001 to 1 µM and less than 10000 nM, respectively.

For `Cc1nc(C2CCN(c3ncnc4[nH]c(-c5ccc(F)cc5)cc34)CC2)[nH]c1-c1ccc(C(F)(F)F)cc1` [P-3136, 6-(4-fluorophenyl)-4-[4-[4-methyl-5-[4-(trifluoromethyl)phenyl]-1H-imidazol-2-yl]-1-piperidyl]-7H-pyrrolo[2,3-d]pyrimidine], the IC50 is 1 to 10 µM on c-Kit kinase and less than 10000 nM in assay [1].

As to `Cc1nc(C2CCN(c3ncnc4[nH]c(-c5ccc(C#N)cc5)cc34)CC2)[nH]c1-c1ccc(C(F)(F)F)cc1` [P-3137, 4-[4-[4-[4-methyl-5-[4-(trifluoromethyl)phenyl]-1H-imidazol-2-yl]-1-piperidyl]-7H-pyrrolo[2,3-d]pyrimidin-6-yl]benzonitrile], the IC50 on c-Kit kinase is 1 to 10 µM; in assay [1] it was less than 10000 nM.

With `Cc1nc(C2CCN(c3ncnc4[nH]c(-c5cnn(C(F)F)c5)cc34)CC2)[nH]c1-c1ccc2c(c1)OCO2` [P-3138, 4-[4-[5-(1,3-benzodioxol-5-yl)-4-methyl-1H-imidazol-2-yl]-1-piperidyl]-6-[1-(difluoromethyl)pyrazol-4-yl]-7H-pyrrolo[2,3-d]pyrimidine], the results for the IC50 (at c-Kit kinase; in assay [1]) were 0.0001 to 1 µM and less than 10000 nM, respectively.

With `CCOc1ccc(-c2[nH]c(C3CCN(c4ncnc5[nH]c(-c6cnn(C(F)F)c6)cc45)CC3)nc2C)cc1C` [P-3139, 6-[1-(difluoromethyl)pyrazol-4-yl]-4-[4-[5-(4-ethoxy-3-methyl-phenyl)-4-methyl-1H-imidazol-2-yl]-1-piperidyl]-7H-pyrrolo[2,3-d]pyrimidine], the half-inhibitory concentration (IC50) was 0.0001 to 1 µM at c-Kit kinase and less than 10000 nM in assay [1].

`CCC1(c2nc(C)c(-c3ccc(OC)cc3)[nH]2)CCN(c2ncnc3[nH]c(C)cc23)CC1` [P-3140, 4-[4-ethyl-4-[5-(4-methoxyphenyl)-4-methyl-1H-imidazol-2-yl]-1-piperidyl]-6-methyl-7H-pyrrolo[2,3-d]pyrimidine]: the results for the half-maximal inhibitory concentration (IC50) (against c-Kit kinase; in assay [1]) were 1 to 10 µM and less than 10000 nM, respectively.

The record behind these values is patent publication US9771369B2, “Compounds and methods for kinase modulation, and indications therefor” (Plexxikon Inc., priority 2014, dated 2017).
